What follows are molecules tested on H358 cells (assay: Cell activity experiment: activity test of H358 cells (MTT, 5 days)). Details: 5 days incubation, absorbance 492 nm.
Format: cell-based
Method in brief: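 H358 cells seeded 90 μL at 55555 cells/mL, grown 24 h, then exposed to 3-fold serial compound dilutions (final top 10000 nM, 0.5% DMSO) in triplicate for 5 days at 37° C., 5% CO2. Viability by MTT (4 h), formazan dissolved in DMSO, absorbance at 492 nm.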

IC50 [nM] | Structure (SMILES)
9 | C=C(F)C(=O)N1CCN(c2nc(OCC3(CN4CCCC4)CC3)nc3c(F)c(-c4cccc5c4C4CC4C5)ccc23)C[C@@H]1CC#N (single isomer, unassigned) [Example 871]
6.6 | C=C(F)C(=O)N1CCN(c2nc(OCC3(CN4CCCC4)CC3)nc3c(F)c(-c4cccc5c4C4CC4C5)ncc23)C[C@@H]1CC#N (single isomer, unassigned) [Example 868]
30 | C=CC(=O)N1CC[C@H]2[C@H]1CN2c1nc(OC[C@@]23CCCN2C[C@H](F)C3)nc2cc(-c3cccc4cccc(Cl)c34)c(Cl)cc12 [Example 474]

Structure (SMILES) | IC50 [nM]
C=CC(=O)N1CCN(c2nc(OC[C@@H]3CCCN3C)nc3c(F)c(-c4cccc5c4CCCC5)c(Cl)cc23)C[C@@H]1CC#N [Example 74] | 25

Same assay, conditions: Homo sapiens, NCI-H358, 120 h, 5 days incubation, absorbance 492 nm

IC50 [nM] | Structure (SMILES)
10 | C=CC(=O)N1CCN(c2nc(OCC34CCCN3CCC4)nc3cc(-c4cncc5c4CCCC5)ccc23)C[C@@H]1CC#N [Example 146, (S)-2-(1-acryloyl-4-(2-((tetrahydro-1H-pyrrolizin-7a(5H)-yl)methoxy)-7-(5,6,7,8-tetrahydroisoquinolin-4-yl)quinazolin-4-yl)piperazin-2-yl)acetonitrile]
120 | C=C(F)C(=O)N1CCN(C2=C(C#N)C(OC[C@@]34CCCN3C[C@H](F)C4)=NC3C=C(c4cccc5ccc(F)c(Cl)c45)C=CC23)C[C@@H]1CC#N (stereo partly drawn) [Example 629]
20 | C=CC(=O)N1CCN(c2nc(OCC34CCCN3CCC4)nc3cc(-c4cccc5c4CCCC5)ccc23)C[C@@H]1CC#N [Example 114, (S)-2-(1-acryloyl-4-(2-((tetrahydro-1H-pyrrolizin-7a(5H)-yl)methoxy)-7-(5,6,7,8-tetrahydronaphthalen-1-yl)quinazolin-4-yl)piperazin-2-yl)acetonitrile]
150 | C=C(F)C(=O)N1CCN(c2nc(OC[C@@H]3C[C@@H](F)CN3C)nc3cc(-c4cccc5c4CCCC5)ccc23)C[C@@H]1CC#N [Example 113]
150 | C=C(F)C(=O)N1CCN(c2nc(OC[C@@H]3CCCN3C)nc3cc(-c4cccc5c4C4CC4C5)ccc23)C[C@@H]1CC#N (stereo partly drawn) [Example 537, 2-((2S)-1-(2-fluoroacryloyl)-4-(2-(((S)-1-methylpyrrolidin-2-yl)methoxy)-7-(1,1a,6,6a-tetrahydrocyclopropa[a]inden-2-yl)quinazolin-4-yl)piperazin-2-yl)acetonitrile]
36 | C=C(F)C(=O)N1CCN(c2nc(OCC34CCCN3CCC4)nc3c(F)c(-c4cncc5c4CCCC5)ncc23)C[C@@H]1CC#N [Example 38, (S)-2-(4-(8-fluoro-2-((tetrahydro-1H-pyrrolizin-7a(5H)-yl)methoxy)-7-(5,6,7,8-tetrahydroisoquinolin-4-yl)pyridino[4,3-d]pyrimidin-4-yl)-1-(2-fluoroacryloyl)piperazin-2-yl)acetonitrile]
200 | C=CC(=O)N1CCN(C2=C(C#N)C(OC[C@@H]3CCCN3C)=NC3C=C(c4cccc5ccc(F)c(Cl)c45)C=CC23)C[C@@H]1CC#N (stereo partly drawn) [Example 623]
148 | C=CC(=O)N1CCN(c2nc(OC[C@@H]3CCCN3C)nc3c(F)c(-c4cccc5ccsc45)ncc23)C[C@@H]1CC#N [Example 51, 2-((S)-1-acryloyl-4-(7-(benzo[b]thien-7-yl)-8-fluoro-2-(((S)-1-methylpyrrolidin-2-yl)methoxy)pyridino[4,3-d]pyrimidin-4-yl)piperazin-2-yl)acetonitrile]
0.33 | C=C(F)C(=O)N1CCN(c2nc(OC[C@@]34CCCN3C[C@H](F)C4)nc3c(F)c(-c4cccc5c4C4CC4C5)ncc23)C[C@@H]1CC#N (stereo partly drawn) [Example 68]
25 | C=CC(=O)N1CCN(c2nc(OC[C@@H]3CCCN3C)nc3c(F)c(-c4cncc5c4CCCC5)ncc23)C[C@@H]1CC#N [Example 33, 2-((S)-1-acryloyl-4-(8-fluoro-2-(((S)-1-methylpyrrolidin-2-yl)methoxy)-7-(5,6,7,8-tetrahydroisoquinoline-4-yl)pyridino[4,3-d]pyrimidin-4-yl)piperazin-2-yl)acetonitrile]
15 | C=CC(=O)N1CC[C@@H]2[C@H]1CN2c1nc(OC[C@@H]2CCCN2C)nc2c(F)c(-c3cncc4c3CCCC4)ncc12 [Example 41]
31 | C=CC(=O)N1CCN(c2nc(OC[C@@]34CCCN3C[C@H](F)C4)nc3c(OC4CC4)c(-c4cccc5ccc(F)c(Cl)c45)c(Cl)cc23)C[C@@H]1CC#N [Example 920, 2-((2S)-1-acryloyl-4-(6-chloro-7-(8-chloro-7-fluoronaphthalen-1-yl)-8-cyclopropoxy-2-((2R,7aS)-2-fluorotetrahydro-1H-pyrrolizin-7a(5H-yl)methoxy)quinazolin-4-yl)piperazin-2-yl)acetonitrile]
0.64 | C=C(F)C(=O)N1CCN(c2nc(OC[C@@]34CCCN3C[C@H](F)C4)nc3c(F)c(-c4cccc5c4CCCC5)ncc23)C[C@@H]1CC#N [Example 8, 2-((S)-4-(8-fluoro-2-(((2R,7aS)-2-fluorotetrahydro-1H-pyrrolizin-7a(5H)-yl)methoxy)-7-(5,6,7,8-tetrahydronaphthalen-1-yl)pyridino[4,3-d]pyrimidin-4-yl)-1-(2-fluoroacryloyl)piperazin-2-yl)acetonitrile]
15 | C=CC(=O)N1CCN(c2nc(OCC34CCCN3CCC4)nc3nc(-c4cccc5cccc(Cl)c45)ccc23)C[C@@H]1CC#N [Example 258, (S)-2-(1-acryloyl-4-(7-(8-chloronaphthalen-1-yl)-2-((tetrahydro-1H-pyrrolizin-7a(5H)-yl)methoxy)pyridino[2,3-d]pyrimidin-4-yl)piperazin-2-yl)acetonitrile]
25 | C=CC(=O)N1CCN(c2nc(OC[C@@H]3C[C@@H](F)CN3C)nc3cc(-c4cncc5c4CCCC5)ccc23)C[C@@H]1CC#N [Example 144]
2.2 | C=CC(=O)N1CCN(c2nc(OC[C@@H]3CCCN3C)nc3c(F)c(-c4cccc5c4[C@H]4C[C@H]4C5)ncc23)C[C@@H]1CC#N [Example 56, 2-((S)-1-acryloyl-4-(8-fluoro-2-(((S)-1-methylpyrrolidin-2-yl)methoxy)-7-((1aS,6aS)-1,1a,6,6a-tetrahydrocyclopropa[a]inden-2-yl)pyridino[4,3-d]pyrimidin-4-yl)piperazin-2-yl)acetonitrile]
20 | C=CC(=O)N1CCN(c2nc(OC[C@@H]3CCCN3C)nc3cc(-c4cncc5c4CCCC5)ccc23)C[C@@H]1CC#N [Example 142]
60 | C=C(F)C(=O)N1CC[C@@H]2[C@H]1CN2c1nc(OCC23CCCN2CCC3)nc2c(F)c(-c3ccc(F)c4c3CCCC4)ncc12 [Example 30]
496 | C=C(F)C(=O)N1CCN(c2nc(OC[C@@H]3CCCN3C)nc3cc(N4CCCc5cccc(Cl)c54)ccc23)C[C@@H]1CC#N [Example 619, 2-((S)-4-(7-(8-chloro-3,4-dihydroquinoline-1(2H)-yl)-2-(((S)-1-methylpyrrolidin-2-yl)methoxy)quinazolin-4-yl)-1-(2-fluoroacryloyl)piperazin-2-yl)acetonitrile]
15 | C=CC(=O)N1CCN(c2nc(OC[C@@H]3C[C@@H](F)CN3C)nc3c(F)c(-c4cncc5c4CCCC5)ncc23)C[C@@H]1CC#N [Example 35]
20 | C=CC(=O)N1CCN(c2nc(OC[C@@H]3C[C@@H](F)CN3C)nc3c(F)c(-c4cccc5c4CCCC5)ncc23)C[C@@H]1CC#N [Example 5, 2-((S)-1-acryloyl-4-(8-fluoro-2-(((2S,4R)-4-fluoro-1-methylpyrrolidin-2-yl)methoxy)-7-(5,6,7,8-tetrahydronaphthalen-1-yl)pyridino[4,3-d]pyrimidin-4-yl)piperazin-2-yl)acetonitrile]
4 | C=CC(=O)N1CCN(c2nc(OC[C@@H]3CCCN3C)nc3c(F)c(-c4cncc5cccc(Cl)c45)ccc23)C[C@@H]1CC#N [Example 158, 2-((S)-1-acryloyl-4-(7-(5-chloroisoquinolin-4-yl)-8-fluoro-2-(((S)-1-methylpyrrolidin-2-yl)methoxy)quinazolin-4-yl)piperazin-2-yl)acetonitrile]
5 | C=CC(=O)N1CCN(c2nc(OC[C@@H]3C[C@@H](F)CN3C)nc3c(F)c(-c4cncc5cccc(Cl)c45)ccc23)C[C@@H]1CC#N [Example 160]
10 | C=C(F)C(=O)N1CCN(c2nc(OC[C@@]34CCCN3CC(F)C4)nc3cc(-c4cccc5cccc(Cl)c45)ccc23)C[C@@H]1CC#N (stereo partly drawn) [Example 84]
0.81 | C=CC(=O)N1CCN(c2nc(OC[C@@H]3CCCN3C)nc3c(F)c(-c4cccc5c4[C@@H]4C[C@@H]4C5)ncc23)C[C@@H]1CC#N [Example 58, 2-((S)-1-acryloyl-4-(8-fluoro-2-(((S)-1-methylpyrrolidin-2-yl)methoxy)-7-((1aR,6aR)-1,1a,6,6a-tetrahydrocyclopropa[a]inden-2-yl)pyridino[4,3-d]pyrimidin-4-yl)piperazin-2-yl)acetonitrile]
5.9 | C=C(F)C(=O)N1CCN(c2nc(OCC3(CN4CCCC4)CC3)nc3c(F)c(-c4cccc5c4C4CC4C5)ncc23)C[C@@H]1CC#N (single isomer, unassigned) [Example 867]
2 | C=CC(=O)N1CCN(c2nc(OCC34CCCN3CCC4)nc3c(F)c(-c4cccc5ccc(F)c(Cl)c45)ccc23)C[C@@H]1CC#N [Example 365, (S)-2-(1-acryloyl-4-(7-(8-chloro-7-fluoronaphthalen-1-yl)-8-fluoro-2-((tetrahydro-1H-pyrrolizin-7a(5H)-yl)methoxy)quinazolin-4-yl)piperazin-2-yl)acetonitrile]
20 | C=C(F)C(=O)N1CCN(c2nc(OCC34CCCN3CCC4)nc3c(F)c(-c4ccc(F)c5c4CCCC5)ncc23)C[C@@H]1CC#N [Example 22]
60 | C=CC(=O)N1CCN(C2=C(C#N)C(OC[C@@]34CCCN3C[C@H](F)C4)=NC3C=C(c4cccc5ccc(F)c(Cl)c45)C=CC23)C[C@@H]1CC#N (stereo partly drawn) [Example 628]

Reference: patent US20240109893A1, “PREPARATION AND APPLICATION METHOD OF HETEROCYCLIC COMPOUNDS AS KRAS INHIBITOR” (SHANGHAI KECHOW PHARMA, INC., priority 2020, published 2024)
